Experimental data reported in ChEMBL document CHEMBL4480442, “Phloroglucinols with Immunosuppressive Activities from the Fruits of Eucalyptus globulus” (J Nat Prod, 2019).

Columns and labels:
[1] = Cytotoxicity against BALB/c mouse lymph node cells assessed as reduction in cell viability measured after 48 hrs by CCK8 assay; type: cell-based
[2] = […], ratio of CC50 for BALB/c mouse lymph node cells to IC50 for immunosuppressive activity in BALB/c mouse lymph node cells assessed as inhibition of concanavalin A stimulated T-cell proliferation
[3] = Immunosuppressive activity in BALB/c mouse lymph node cells assessed as inhibition of concanavalin A stimulated T-cell proliferation measured after 48 hrs by CCK8 assay; type: functional

CC(C)CC(=O)c1c(O)c(C=O)c(O)c(C[C@H]2CC[C@@](C)(O)C3[C@H]4[C@@H](CC[C@@]32C)C4(C)C)c1O (some centres not stated)
CC50 at 48 h [1]: 598 µM | Ratio CC50/IC50 [2]: 16.9 | IC50 [3]: 35.3 µM

CO[C@]1(C)CC[C@@H]2[C@H]([C@H]3[C@H]1CC[C@]3(C)[C@@H](CC(C)C)c1c(O)c(C=O)c(O)c(C=O)c1O)C2(C)C
CC50 at 48 h [1]: 578 µM | Ratio CC50/IC50 [2]: 8.5 | IC50 [3]: 68.4 µM

CCC(C)C(=O)c1c(O)c(C)c(OC)c(C)c1O (configuration not stated)
CC50 at 48 h [1]: 623 µM | Ratio CC50/IC50 [2]: 8.9 | IC50 [3]: 70.2 µM

CC(C)C[C@H]1c2c(O)c(C=O)c(O)c(C=O)c2O[C@]23CC[C@@]1(C)C2[C@H]1[C@@H](CC[C@@H]3C)C1(C)C (some centres not stated)
CC50 at 48 h [1]: 588 µM | Ratio CC50/IC50 [2]: 8.5 | IC50 [3]: 69.3 µM

CC(C)C[C@H](c1c(O)c(C=O)c(O)c(C=O)c1O)[C@@]1(C)CC[C@@H]2[C@@H]1[C@H]1[C@@H](CC[C@@]2(C)O)C1(C)C [MACROCARPAL B]
CC50 at 48 h [1]: 570 µM | Ratio CC50/IC50 [2]: 18.4 | IC50 [3]: 31.2 µM

CC(C)CC(=O)c1c(O)c(C=O)c(O)c(C[C@H]2CC[C@H](C)C3=C[C@@H](C(C)(C)O)CC[C@@]32C)c1O
CC50 at 48 h [1]: 578 µM | Ratio CC50/IC50 [2]: 30.2 | IC50 [3]: 19.1 µM

CO[C@]1(C)CC[C@@H]2[C@H]([C@H]3[C@H]1CC[C@]3(C)[C@H](CC(C)C)c1c(O)c(C=O)c(O)c(C=O)c1O)C2(C)C
CC50 at 48 h [1]: 562 µM | Ratio CC50/IC50 [2]: 15.7 | IC50 [3]: 35.8 µM

CC(C)C[C@H](c1c(O)c(C=O)c(O)c(C=O)c1O)[C@@]1(C)CC[C@@H]2[C@@H]1[C@H]1[C@@H](CC[C@]2(C)O)C1(C)C
CC50 at 48 h [1]: 597 µM | Ratio CC50/IC50 [2]: 22.7 | IC50 [3]: 26.3 µM

C/C1=C/[C@H]2[C@@H](CC[C@]3(C)Oc4c(C=O)c(O)c(C=O)c(O)c4[C@@H](CC(C)C)C3CC1)C2(C)C (some centres not stated)
CC50 at 48 h [1]: 600 µM | Ratio CC50/IC50 [2]: 4.6 | IC50 [3]: 129 µM
